Results published in patent publication US20240317721A1, “PYRAZOLYL DERIVATIVES AS INHIBITORS OF THE KRAS MUTANT PROTEIN” (NOVARTIS AG, priority 2021, published 2024).

molecular target: KRasG12C (M1-K169, biotinylated on the N-terminus) (Homo sapiens (Human), UniProt P01116, G12C); experiment: Covalent competition assay: scintillation proximity assay (SPA) quantifying covalent modification of KRASG12C; format: binding; settings: competition with radiolabeled covalent probe (Compound B/Compound A), 2 hours incubation, 10 nM KRasG12C
Protocol: Cells were harvested by centrifugation and frozen at −80° C. until further processing. […] The cells were lysed by 4 passages through an Avestin Emulsiflex at about 20000 psi and insoluble debris removed by centrifugation and filtered through a 0.45 µm Durapore membrane (Millipore). […] Eluted protein fractions were analyzed by Novex NuPage 4-12% PAGE. […] The protein in the flow through was subjected to a final polishing step on a HiLoad 16/60 Superdex 200 prep grade size-exclusion column pre-equilibrated with SEC-buffer (20 mM HEPES pH 7.4, 150 mM NaCl, 5 mM MgCl2, 1 µM GDP). Positive fractions were determined by PAGE (Novex NuPage 4-12% BisTris) analysis.
A scintillation proximity assay (SPA) was used to determine the potency of the compounds.
This assay measures the ability of the test compound to compete with the radiolabeled covalent probe for binding to and covalently modify KRASG12C.
(see above for synthesis of Compound A and Compound B). A serial dilution of the compounds to be tested is mixed with a fixed concentration of the radiolabeled covalent probe before incubation with KRASG12C:GDP as described below. KRASG12C can either be bound by the radiolabeled covalent probe (Compound B), resulting in light being emitted from the beads, or bound by covalent test compound preventing signal generation.
A 1/20 isotopic dilution of labeled (Compound B) and non-labeled covalent (Compound A) probe was prepared and added to all wells on the plate. The reaction was started by addition of KRasG12C (M1-K169, biotinylated on the N-terminus) to the compounds and incubated for 2 hours with continuous agitation allowing for full modification of KRasG12C with probe or test compounds. Final concentrations in an assay volume of 40 μL were 10 nM KRasG12C, 25 nM radio-ligand and 475 nM unlabelled ligand. The assay buffer contained 20 mM Tris-HCl pH 7.5 (Invitrogen), 150 mM NaCl (Sigma Aldrich), 0.1 mM MgCl2 (Sigma Aldrich), and 0.01% Tween-20 (Sigma Aldrich). Following addition of 50 μL of a 400 μg/mL suspension of streptavidin-coated YSi beads (Perkin Elmer), plates were incubated for a further 30 min with continuous agitation before reading the plates on a scintillation counter (Topcount NXT 384 (Packard).
Evaluation was carried out using assay data analysis software (such as the standard Novartis in-house Helios software application, Novartis Institutes for BioMedical Research, unpublished) using the methods described in Formenko et al., Robust Regression for high-throughput screening, Computer Methods and Programs in Biomedicine, 2006, 82, 31-37. Following normalization of activity values for the wells to % inhibition (% inhibition=[(high control−sample)/(high control−low control)]×100), IC50 fitting was carried out from the duplicate determinations present on each plate according to Formenko et al., 2006.
Evaluation can also be carried out using commercially available software which is designed to derive IC50 values using 4-parameter fits (e.g. GraphPad Prism, XL fit).

Structure (SMILES)	IC50 [nM]
C=CC(=O)N1CC2(CC(n3nc(N4CCC(N5CC6COCC(C5)O6)CC4(C)C)c(-c4c(Cl)c(C)cc5[nH]ncc45)c3C)C2)C1 (single isomer, unassigned) [Example 119a, 1-(6-(3-(4-(3,9-dioxa-7-azabicyclo[3.3.1]nonan-7-yl)-2,2-dimethylpiperidin-1-yl)-4-(5-chloro-6-methyl-1H-indazol-4-yl)-5-methyl-1H-pyrazol-1-yl)-2-azaspiro[3.3]heptan-2-yl)prop-2-en-1-one]	2800
C=CC(=O)N1CC2(CC(n3nc(N4CC[C@@H](CN5CCN(C(C)=O)CC5)CC4(C)C)c(-c4c(Cl)c(Cl)cc5[nH]ncc45)c3C)C2)C1 (single isomer, unassigned) [Example 319b]	9
C=CC(=O)N1CC2(CC(n3nc(N4CC[C@@H](CN5CCN(C)[C@H](CO)C5)CC4(C)C)c(-c4c(Cl)c(Cl)cc5[nH]ncc45)c3C)C2)C1 (single isomer, unassigned) [Example 270a]	2400
C=CC(=O)N1CC2(CC(n3nc(N4CC[C@@H](CN5CCOC6CS(=O)(=O)CC65)CC4(C)C)c(-c4c(Cl)c(Cl)cc5[nH]ncc45)c3C)C2)C1 (single isomer, unassigned) [Example 266a, 1-(6-(4-(5,6-dichloro-1H-indazol-4-yl)-3-((R)-4-(((4aR*,7aS*)-6,6-dioxidohexahydro-4H-thieno[3,4-b][1,4]oxazin-4-yl)methyl)-2,2-dimethylpiperidin-1-yl)-5-methyl-1H-pyrazol-1-yl)-2-azaspiro[3.3]heptan-2-yl)prop-2-en-1-one]	3100
C=CC(=O)N1CC2(CC(n3nc(N4CCN(C(C)=O)CC4)c(-c4c(Cl)ccc5[nH]ncc45)c3C)C2)C1C (single isomer, unassigned) [Example 197a, 1-(6-(3-(4-acetylpiperazin-1-yl)-4-(5-chloro-1H-indazol-4-yl)-5-methyl-1H-pyrazol-1-yl)-1-methyl-2-azaspiro[3.3]heptan-2-yl)prop-2-en-1-one]	> 50000
C=CC(=O)N1CC2(CC(n3nc(N4CCC5C(CC(=O)N5C)C4)c(-c4c(Cl)c(C)cc5[nH]ncc45)c3C)C2)C1 (single isomer, unassigned) [Example 39b, 5-(1-(2-acryloyl-2-azaspiro[3.3]heptan-6-yl)-4-(5-chloro-6-methyl-1H-indazol-4-yl)-5-methyl-1H-pyrazol-3-yl)-1-methyloctahydro-2H-pyrrolo[3,2-c]pyridin-2-one]	75
C=CC(=O)N1CC2(CC(n3nc(N4CCN(C[C@@H]5COCCO5)C[C@]4(C)COC)c(-c4c(Cl)c(C)cc5[nH]nc(N)c45)c3C)C2)C1 (single isomer, unassigned) [Example 118a]	15
C=CC(=O)N1CC2(CC(n3nc(N4CCC(N(C)C(=O)COC)CC4(C)C)c(-c4c(Cl)c(C)cc5[nH]ncc45)c3C)C2)C1 (single isomer, unassigned) [Example 96a, N-(1-(1-(2-acryloyl-2-azaspiro[3.3]heptan-6-yl)-4-(5-chloro-6-methyl-1H-indazol-4-yl)-5-methyl-1H-pyrazol-3-yl)-2,2-dimethylpiperidin-4-yl)-2-methoxy-N-methylacetamide]	> 5000
C=CC(=O)N1CC2(CC(n3nc(N4CC[C@@H](CN5C[C@@H]6CN(C(C)=O)C[C@@H]6C5)CC4(C)C)c(-c4c(Cl)c(Cl)cc5[nH]ncc45)c3C)C2)C1 (single isomer, unassigned) [Example 295b]	6
C=CC(=O)N1CC2(CC(n3nc(N4CC[C@@H](CN5CC(O)C(OC)C5)CC4(C)C)c(-c4c(Cl)c(Cl)cc5[nH]ncc45)c3C)C2)C1 (single isomer, unassigned) [Example 274a, 1-(6-(4-(5,6-dichloro-1H-indazol-4-yl)-3-((R)-4-(((3S*,4S*)-3-hydroxy-4-methoxypyrrolidin-1-yl)methyl)-2,2-dimethylpiperidin-1-yl)-5-methyl-1H-pyrazol-1-yl)-2-azaspiro[3.3]heptan-2-yl)prop-2-en-1-one]	795
C=CC(=O)N1CC2(CC(n3nc(N4CC[C@@H](CN5CCOC6(C5)CN(C(C)=O)C6)CC4(C)C)c(-c4c(Cl)c(Cl)cc5[nH]ncc45)c3C)C2)C1 (single isomer, unassigned) [Example 311b]	18
C=CC(=O)N1CC2(CC(n3nc(N4CCN(C(COC)COC)C[C@]4(C)CC)c(-c4c(Cl)c(C)cc5[nH]ncc45)c3C)C2)C1 (single isomer, unassigned) [Example 187a]	4200
C=CC(=O)N1CC2(CC(n3nc(N4CC[C@@H](CN5CCOCC5)CC4(C)C)c(-c4c(Cl)c(C)cc5[nH]nc(N)c45)c3C)C2)C1 (single isomer, unassigned) [Example 242a]	13

The remaining lines, values ahead:

IC50 [nM]	Structure (SMILES)
25200	C=CC(=O)N1CC2(CC(n3nc(N4CCN(C(=O)C5CC5)CC4(C)C)c(-c4c(Cl)c(C)cc5[nH]ncc45)c3C)C2)C1 (single isomer, unassigned) [Example 127a, 1-(6-(4-(5-chloro-6-methyl-1H-indazol-4-yl)-3-(4-(cyclopropanecarbonyl)-2,2-dimethylpiperazin-1-yl)-5-methyl-1H-pyrazol-1-yl)-2-azaspiro[3.3]heptan-2-yl)prop-2-en-1-one]
2700	C=CC(=O)N1CC2(CC(n3nc(N4CCC(C)(O)CC4(C)C)c(-c4c(Cl)c(C)cc5[nH]ncc45)c3C)C2)C1 (single isomer, unassigned) [Example 27a, 1-(6-(4-(5-chloro-6-methyl-1H-indazol-4-yl)-3-(4-hydroxy-2,2,4-trimethylpiperidin-1-yl)-5-methyl-1H-pyrazol-1-yl)-2-azaspiro[3.3]heptan-2-yl)prop-2-en-1-one]
> 5000	C=CC(=O)N1CC2(CC(n3nc(N4CCN(CC(C)(C)O)CC45CCC5)c(-c4c(Cl)c(F)cc5[nH]ncc45)c3C)C2)C1 (single isomer, unassigned) [Example 167a, 1-(6-(4-(5-chloro-6-fluoro-1H-indazol-4-yl)-3-(8-(2-hydroxy-2-methylpropyl)-5,8-diazaspiro[3.5]nonan-5-yl)-5-methyl-1H-pyrazol-1-yl)-2-azaspiro[3.3]heptan-2-yl)prop-2-en-1-one]
38	C=CC(=O)N1CC2(CC(n3nc(N4CCN(CCOC)C[C@@]4(C)C(F)F)c(-c4c(Cl)c(C)cc5[nH]ncc45)c3C)C2)C1 (single isomer, unassigned) [Example 179b]
> 5000	C=CC(=O)N1CC2(CC(n3nc(N4CCN(C[C@@H]5COCCO5)C[C@@]4(C)C(F)F)c(-c4c(Cl)c(Cl)cc5[nH]ncc45)c3C)C2)C1 (single isomer, unassigned) [Example 105a]
56	C=CC(=O)N1CC2(CC(n3nc(N4CCN(CC(C)(C)O)C[C@@]4(C)CC)c(-c4c(Cl)c(C)cc5[nH]ncc45)c3C)C2)C1 (single isomer, unassigned) [Example 164b]
1600	C=CC(=O)N1CC2(CC(n3nc(N4CCC(CN5CCOCC5)C4(C)C)c(-c4c(Cl)c(Cl)cc5[nH]ncc45)c3C)C2)C1 (single isomer, unassigned) [Example 219a, 1-(6-(4-(5,6-dichloro-1H-indazol-4-yl)-3-(2,2-dimethyl-3-(morpholinomethyl)pyrrolidin-1-yl)-5-methyl-1H-pyrazol-1-yl)-2-azaspiro[3.3]heptan-2-yl)prop-2-en-1-one]
